Measurements from patent US11524012B1, “Quinolone analogs and their salts, compositions, and method for their use” (Senhwa Biosciences, Inc., priority 2018, dated 2022).

Experiments:
[1] = Pharmacokinetic parameters in preclinical species (all species); format: in vivo; conditions: ICR (mouse), SD (rat), dog, monkey, plasma, intravenous, mice, rats, dogs and monkeys, read-out: steady-state volumes of distribution (Vss)
[2] = system: various cancer cell lines; experiment: Cell viability by Alamar Blue assay; format: cell-based
Experimental: The effect of Compound I on cell viability was assessed by Alamar Blue assay of metabolic activity in various cancer cell lines.

[3] = Pharmacokinetic parameters in preclinical species; format: in vivo, mice; conditions: Mouse (ICR), IV, 5 mg/kg, mean of 3 animals

What does the source list for Cc1cnc(CNC(=O)c2c(=O)c3ccc(N4CCCN(C)CC4)nc3n3c2sc2ccccc23)cn1 [Compound I, 2-(4-Methyl-[1,4]diazepan-1-yl)-5-oxo-5H-7-thia-1,11b-diaza-benzo[c]fluorene-6-carboxylic acid (5-methyl-pyrazin-2-ylmethyl)-amide]?
Vd [1]: 0.15 to 22 L/kg; EC50 ([2]; A7, Melanoma): 23 nM; EC50 ([2]; BJ-hTERT, Normal): 5170 nM; EC50 ([2]; CCD-1058Sk, Normal): 4710 nM; EC50 ([2]; CCD-1068Sk, Normal): 5070 nM; EC50 ([2]; CCD-1094Sk, Normal): 4810 nM; EC50 ([2]; CD-1096Sk, Normal): 5260 nM; EC50 ([2]; Homo sapiens, A549, A549, Lung): 4900 nM; EC50 ([2]; Homo sapiens, A-375, A375, Melanoma): 58 nM; EC50 ([2]; Homo sapiens, BT-20, BT-20, Breast): 335 nM; EC50 ([2]; Homo sapiens, BT-474, BT-474, Breast): 86 nM; EC50 ([2]; Homo sapiens, BXPC-3, BxPC-3, Pancreatic): 664 nM; EC50 ([2]; Homo sapiens, COLO 205, COLO-205, Colon): 96 nM; EC50 ([2]; Homo sapiens, Daudi, Lymphoma): 142 nM; EC50 ([2]; Homo sapiens, EOL1, EOL-1, Leukemia): 3 nM; EC50 ([2]; Homo sapiens, HCT-116, HCT-116, Colon): 164 nM; EC50 ([2]; Homo sapiens, HL60/MX2, HL60/MX2, Leukemia): 147 nM; EC50 ([2]; Homo sapiens, HL-60, HL60, Leukemia): 83 nM; EC50 ([2]; Homo sapiens, HT-29, HT-29, Colon): 741 nM; EC50 ([2]; Homo sapiens, Hs-578T, Hs 578.T, Breast): 1650 nM; EC50 ([2]; Homo sapiens, Jurkat, Leukemia): 64 nM; EC50 ([2]; Homo sapiens, K562, K562, Leukemia): 104 nM; EC50 ([2]; Homo sapiens, LNCaP, Prostate): 5500 nM; EC50 ([2]; Homo sapiens, MCF7, MCF 7, Breast): 347 nM; EC50 ([2]; Homo sapiens, MDA-MB-175-VII, Breast): 2780 nM; EC50 ([2]; Homo sapiens, MDA-MB-231, MDA-MB-231, Breast): 83 nM; EC50 ([2]; Homo sapiens, MDA-MB-361, MDA-MB-361, Breast): 2100 nM; EC50 ([2]; Homo sapiens, MDA-MB-453, MDA-MB-453, Breast): 140 nM; EC50 ([2]; Homo sapiens, MDA-MB-468, MDA-MB-468, Breast): 171 nM; EC50 ([2]; Homo sapiens, MIA PaCa-2, MIA PaCa-2, Pancreatic): 74 nM; EC50 ([2]; Homo sapiens, MOLT-3, MOLT-3, Leukemia): 6 nM; EC50 ([2]; Homo sapiens, MV4-11, MV 4;11, Leukemia): 12 nM; EC50 ([2]; Homo sapiens, NCI-H460, NCI-H460, Lung): 38 nM; EC50 ([2]; Homo sapiens, NCI-H520, NCI-H520, Lung): 70 nM; EC50 ([2]; Homo sapiens, NCI-H1299, NCI-H1299, Lung): 55 nM; EC50 ([2]; Homo sapiens, NCI-H2170, NCI-H2170, Lung): 194 nM; EC50 ([2]; Homo sapiens, PANC-1, PANC-1, Pancreatic): 5000 nM; EC50 ([2]; Homo sapiens, RPMI-8226, RPMI-8226, Myeloma): 68 nM; EC50 ([2]; Homo sapiens, Raji, Lymphoma): 133 nM; EC50 ([2]; Homo sapiens, Ramos, Lymphoma): 66 nM; EC50 ([2]; Homo sapiens, SAOS-2, Saos-2, Osteosarcoma): 5000 nM; EC50 ([2]; Homo sapiens, SK-BR-3, SKBr3, Breast): 134 nM; EC50 ([2]; Homo sapiens, SK-MEL-24, SK-MEL-24, Melanoma): 147 nM; EC50 ([2]; Homo sapiens, SK-MES-1, SK-MES-1, Lung): 1260 nM; EC50 ([2]; Homo sapiens, SK-OV-3, SK-OV-3, Ovarian): 78 nM; EC50 ([2]; Homo sapiens, SUM149PT, SUM 149PT, IBC (Invasive ductal breast carcinoma (inflammatory))): 751 nM; EC50 ([2]; Homo sapiens, T47D, Breast): 2340 nM; EC50 ([2]; Homo sapiens, THP-1, THP-1, Leukemia): 47 nM; EC50 ([2]; Homo sapiens, U2OS, Osteosarcoma): 281 nM; EC50 ([2]; Homo sapiens, UACC-812, UACC-812, Breast): 1830 nM; EC50 ([2]; Homo sapiens, ZR-75-1, ZR-75-1, Breast): 123 nM; EC50 ([2]; Hs 605.T, Breast): 116 nM; EC50 ([2]; NK92mi, Lymphoma): 165 nM; EC50 ([2]; PC-3, Prostate): 1100 nM; EC50 ([2]; SEM, Leukemia): 18 nM; EC50 ([2]; SR, Leukemia): 5 nM; EC50 ([2]; SUM190PT, SUM 190PT, IBC (Invasive ductal breast carcinoma (inflammatory))): 583 nM; antiproliferative activity (in words) ([2]; multiple cancer cell lines): broad spectrum antiproliferative activity; activity in normal cells (in words) ([2]; normal cells): significantly less active; CIs [3]: 29 mL/h/kg; Cmax ([3]; plasma): 34300 ng/mL; half-life ([3]; plasma): 360 min; AUC(0-t) ([3]; plasma, read-out: AUC24hr): 186 µg·h/mL; Vd ([3]; plasma, read-out: Vss): 0.145 L/kg
